US8586125B2, “Thermal treatment of an implantable medical device” (Advanced Cardiovascular Systems, Inc., priority 1999, dated 2013)

Columns and labels:
[1] = Release Rate Profile Procedure (in vitro, HPLC); type: physicochemical; conditions: as demonstrated in Example 53
Description: This Example 41 is referred to as the “Release Rate Profile Procedure.” A drug-coated stent was placed on a stent holder of a Vankel Bio-Dis release rate tester (Vankel, Inc., Cary, N.C.). The stent was dipped into an artificial medium which stabilizes the 40-O-(2-hydroxy)ethyl-rapamycin in the testing solution, including a phosphate buffer saline solution (10 mM, pH 7.4) with 1% TRITON X-100 (Sigma Corporation), for a designated amount of time (e.g., 3 hours). Then the solution was analyzed for the amount of drug released from the stent coating using an HPLC process. The HPLC system consisted of a Waters 2690 system with an analytical pump, a column compartment (set at 40° C.), an auto-sampler, and a 996 PDA detector. The column was an YMC Pro C18 (150 mm×4.6 I.D., 3 μm particle size), maintained at a temperature of 40° C. The mobile phase consisted of 75% acetonitrile and 25% 20 mMolar ammonium acetate. […] After the drug solution was analyzed by HPLC the results were quantified by comparing the release rate results with a reference standard.
If the experimental protocol required that the stent coating be subjected to experimental conditions for an additional time, the stent was then dipped in a fresh medium solution for the necessary amount of time (e.g., another 3 hours) and the drug released in the solution was analyzed again according to the HPLC procedure described above. […]

[2] = Release rate from a standard polymeric coating; type: physicochemical; conditions: in about 24 hours
Text: Another potential shortcoming of the foregoing method of medicating stents is that the release rate of the active agent may be too high to provide an efficacious treatment. This shortcoming may be especially pronounced with certain active agents. […] Thus, there is a need for a coating that reduces the release rate of active agents in order to provide a more efficacious release rate profile.

[3] = system: coronary arteries; assay: Cephalotaxin/EVOH coated stents implanted in porcine coronary arteries; type: in vivo, pigs; conditions: cephalotaxin coated vs uncoated and EVOH coated stents; estimated 33 μg cephalotaxin per stent
Description: Multi-Link™ stents were cleaned by placement in an ultrasonic bath of isopropyl alcohol solution for 10 minutes. The stents were dried and plasma cleaned in a plasma chamber. An EVOH solution was made with 1 gram of EVOH and 7 grams of DMSO, making an EVOH:DMSO ratio of 1:7. Cephalotaxin was added to the 1:7 EVOH:DMSO solution. Cephalotaxin constituted 5% by weight of the total weight of the solution. The solution was vortexed and placed in a tube. The cleaned Multi-Link™ stents were attached to mandrel wires and dipped into the solution. The coated stents were passed over a hot plate, for about 3-5 seconds, with a temperature setting of about 60° C. The coated stents were cured for 6 hours in an air box then placed in a vacuum oven at 60° C. for 24 hours. The above process was repeated twice, having a total of three layers. The average weight of the coating was 0.00013 gram, with an estimated cephalotaxin concentration of 33 μg. The stents were sterilized by electron beam radiation. […]

Compound	decrease of the release rate by thermal treatment as compared to a control group [1]	release rate from a standard polymeric coating [2]	amount of neointimal proliferation resulting from arterial injury [3]
CO[C@H]1C[C@@H]2CC[C@@H](C)[C@@](O)(O2)C(=O)C(=O)N2CCCC[C@H]2C(=O)O[C@H]([C@H](C)C[C@@H]2CC[C@@H](OCCO)[C@H](OC)C2)CC(=O)[C@H](C)/C=C(\C)[C@@H](O)[C@@H](OC)C(=O)[C@H](C)C[C@H](C)/C=C/C=C/C=C/1C [40-O-(2-hydroxy)ethyl-rapamycin]	about 50%	greater than 50%	
COC1=C[C@]23CCCN2CCc2cc4c(cc2[C@@H]3[C@@H]1O)OCO4 [cephalotaxin, Cephalotaxin]			no significant difference
